SMILES strings stand for the structures.

Series [1] relates to HIV-1 2-LTR DNA circles (proviral DNA synthesis) in macrophages. Kind of series: Quantitative 2LTR circle PCR in transduced macrophages. In kind it is cell-based. The conditions noted are these: rACT 0.1 and 1 mM, macrophages.
Method: Human macrophages, which were prepared from multiple donors, were pre-incubated with various concentrations of rACT, and then transduced with an HIV vector (D3-GFP), which expressed all HIV-1 proteins except Env and Nef (replaced with eGFP).
(§3) Dideoxy uracil triphosphate (ddUTP) was assessed for its ability to inhibit viral reverse transcription in non-dividing cells. Primary human macrophages and CD4^+ T-cells were isolated from human buffy coats and pretreated with ddUTP. The treated cells were then transduced with a single round of VSV-G pseudotyped HIV-1 vector D3-HIV in the presence of various concentrations of drug.
Equal p24 level of the produced vector was used for infecting human macrophages pre-incubated with different concentrations of rACT (RI Chemicals, CA) for 12 hours. For ddUTP, the produced vector was pre-incubated for at least two hours. One half of the harvested cells were used for determining the percentages of the GFP expressing and/or propidium iodide (PI) stained cells by FACS at 7 days post infection. All cells used to asses transduction efficiency were gated or stained with propidium iodide to assure live cells were measured. The remaining cells were used for the extraction of genomic DNA. Quantitative 2LTR circle PCR assay using real-time PCR was normalized by total genomic DNA (Biorad, Hercules, Calif.).
Series [2] concerns HIV-1 vector (DHIV-GFP) in activated CD4+ T cells. Kind of series: HIV-GFP vector transduction of activated CD4+ T cells (GFP FACS). In kind it is cell-based. The following applies: rACT 0.1 and 1 mM, activated CD4+ T cells compared to macrophages.
Method: Next, rACT was evaluated for its ability to inhibit HIV-1 replication in non-dividing cells. The transduction efficiency of an HIV-1 vector in primary human macrophages in the presence and absence of rACT was measured. Human macrophages, which were prepared from multiple donors, were pre-incubated with various concentrations of rACT, and then transduced with an HIV vector (D3-GFP), which expressed all HIV-1 proteins except Env and Nef (replaced with eGFP). Virus infectivity was determined by FACS analysis for GFP expression at 7 days post infection. […] Finally, the effect of rACT on HIV-1 infection in activated CD4^+ T cells was examined.
as §3
rACT was tested in T cells as follows, human primary activated CD4^+ T cells (2.5×10^5) cells isolated from two donors were pre-treated with 0, 0.1, and 1 mM rACT for 4 hours, and then the cells were transduced with DHIV-GFP. The transduced cells were fixed at 48 hours post transduction, and analyzed by FACS for determining the percent of GFP cells. […]
The next series deals with CHME5 cells. Put plainly: Cytotoxicity of rACT, FACS/trypan blue. The following applies: concentrations up to 1 mM, 2 days. In kind it is cell-based, human. The method, then: (§1) FIGS. 6A-6E show inhibition of HIV-1 reverse transcription by 3′ deoxyadenosine chain terminator (rACT) in human primary macrophages and its cytotoxicity. FIG. 6A includes a graph showing the cytotoxicity of rACT in human primary CD4^+ T cells, U937 cells, and CHME5 cells. These three types of cells were cultured and treated with different concentrations of rACT (up to 1 mM) for 2 days, and the percentage of live and dead cells were determined by FACS and/or trypan blue staining. The percentage of the live cells in the absence of rACT was used for normalization (100%), and the base line cell death of these cell types in the absence of rACT were less than 5%. FIG. 6B includes FACS results. […] The percentages of GFP positive macrophages and PI positive cells in a representative donor, which were determined by FACS at 7 days post transduction, are shown. […] Genomic DNAs were extracted from the transduced macrophages in FIG. 6B, and were used in a quantitative 2LTR circle PCR assay. Viral production was determined by p24 ELISA with the collected media. […]
(§2) First, the cytotoxicity of rACT in human primary CD4^+ T cells, human primary macrophages, human microglial CHME5, and human premonocytic U937 cell lines was assessed. Cells were incubated with different concentrations of rACT (up to 1 mM) for 2 days, and cell survival was determined. […]

The next series concerns U937 cells. Put plainly: Cytotoxicity of rACT, FACS/trypan blue. The class given is cell-based, human. The following applies: concentrations up to 1 mM, 2 days. The method, then: as §1, §2
In series [3] the test system is human primary macrophages. Put plainly: Toxicity of rNCTs in macrophages, propidium iodide-based FACS. The following applies: 0.5, 1 and 2 mM, 7 days. The class given is cell-based. The method, then: Human primary macrophages were incubated in the presence or absence of rACT, rCCT, rGCT, or rUCT (0.5, 1 and 2 mM) for 7 days, and the percent of live cells (cell survival rate) were determined by propidium iodide-based FACS. FIG. 12 includes a graph of cell survival rate with each rNCTP.
The continuous HIV-1 culture system in human primary macrophages was also employed to evaluate the toxicity of rNCTs in nondividing cells. Human primary macrophages were incubated in the presence or absence of each rNCT (0.5, 1 and 2 mM) for 7 days, and the percentage of live cells (cell survival rate) were determined by propidium iodide-based FACS.

For series [4], the system named is HIV-1 vector (D3-GFP) in primary human macrophages. Kind of series: HIV-GFP vector transduction of primary macrophages (GFP FACS). The class given is cell-based. The conditions noted are these: rACT 0.1 and 1 mM, 7 days post infection, versus no treatment.
Method: Human primary macrophages were preincubated with different concentrations of rACT (0, 10, 100 and 100 μM) for 24 hours and then transduced with HIV-GFP vector (equal p24 amounts). The percentages of GFP positive macrophages and PI positive cells in a representative donor, which were determined by FACS at 7 days post transduction, are shown. […] These experiments were performed in triplicate from three different blood donors.
Primary human macrophages were pretreated with ddUTP and transduced with a single round VSV-G pseudotyped HIV-1 vector (D3HIV). […] FIG. 10B is a graph showing the results from flow cytometry analysis of the transduced cells.
Next, rACT was evaluated for its ability to inhibit HIV-1 replication in non-dividing cells. The transduction efficiency of an HIV-1 vector in primary human macrophages in the presence and absence of rACT was measured. Human macrophages, which were prepared from multiple donors, were pre-incubated with various concentrations of rACT, and then transduced with an HIV vector (D3-GFP), which expressed all HIV-1 proteins except Env and Nef (replaced with eGFP). Virus infectivity was determined by FACS analysis for GFP expression at 7 days post infection.
Dideoxy uracil triphosphate (ddUTP) was assessed for its ability to inhibit viral reverse transcription in non-dividing cells. […]
In series [5] the test system is human primary CD4+ T cells. Put plainly: Cytotoxicity of rACT, FACS/trypan blue. The following applies: concentrations up to 1 mM, 2 days. The class given is cell-based. The method, then:
as §1, §2

In the case of `Nc1ncnc2c1ncn2[C@@H]1O[C@H](CO)C[C@H]1O` [rACT, 3′-deoxyadenosine], the “2-LTR circle copy number” value in series [1] is recorded as “substantially reduced the 2-LTR circle copy number”. In series [2], the “inhibitory effect on HIV-1 infection (GFP positive cells)” value is given as “less of an inhibitory effect”. For the same molecule, the cytotoxicity result (in the series on CHME5 cells; in the series with U937 cells; in series [5]) was “no significant cytotoxicity” in each case. Further, in series [3], the “cytotoxicity (cell survival rate)” value is on record as “no significant cytotoxicity”. In addition, the “percent of macrophages expressing GFP” value in series [4] is “reduced the percent of macrophages expressing GFP”.

The values are drawn from patent publication US9289445B2, “Compositions and methods for treating or preventing a retrovirus infection” (University of Rochester, priority 2011, dated 2016).
